Experimental data as given in US20230339939A1 (Bayer Aktiengesellschaft, priority 2020, published 2023).
pIC50: −log10 of the molar value.

Columns and labels:
CSNK1A1 = CSNK1A1 (Homo sapiens (Human), UniProt P48729); assay: CSNK1A1 Assay 2 (ADP-Glo, 1 μM ATP, substrate biotin-Ahx-KRRRAL-pS-VASLPGL); format: biochemical; conditions: median, read-out: CSNK1A1 Assay 2 IC50 [mol/l] (median)
Summary of the method: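 GST-tagged full-length human CSNK1A1 from baculovirus-infected insect cells (about 0.0375 ng/μL), preincubated 15 min at 22 °C with compound in HEPES pH 7.5 buffer, with 1 μM ATP and biotin-Ahx-KRRRAL-pS-VASLPGL substrate. ADP formed read by ADP-Glo luminescence.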

CSNK1D = CSNK1D (Homo sapiens (Human), UniProt P48730); assay: CSNK1D Assay (ADP-Glo, 1 μM ATP); format: biochemical; conditions: median, read-out: CSNK1D IC50 [mol/l] (median)
Summary of the method: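 Enzyme is N-terminal GST-tagged full-length human CSNK1D from baculovirus-infected insect cells (typically about 0.5 ng/μL), with a biotinylated peptide substrate and 1 μM ATP. Compound pre-incubated 15 min at 22° C in HEPES pH 7.5 buffer; ADP formed is read by ADP-Glo luminescence.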

CSNK1A1, sequence (P48729 whole entry): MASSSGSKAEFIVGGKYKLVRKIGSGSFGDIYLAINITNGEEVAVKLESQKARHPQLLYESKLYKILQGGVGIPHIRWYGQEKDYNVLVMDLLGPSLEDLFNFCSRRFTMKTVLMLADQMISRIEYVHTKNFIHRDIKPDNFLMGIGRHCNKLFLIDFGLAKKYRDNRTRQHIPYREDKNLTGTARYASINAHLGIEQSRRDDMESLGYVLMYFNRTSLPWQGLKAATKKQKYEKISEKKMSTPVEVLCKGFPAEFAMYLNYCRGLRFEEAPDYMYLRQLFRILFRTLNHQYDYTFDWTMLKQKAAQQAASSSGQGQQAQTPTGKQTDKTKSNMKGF
CSNK1D, sequence (P48730 whole entry): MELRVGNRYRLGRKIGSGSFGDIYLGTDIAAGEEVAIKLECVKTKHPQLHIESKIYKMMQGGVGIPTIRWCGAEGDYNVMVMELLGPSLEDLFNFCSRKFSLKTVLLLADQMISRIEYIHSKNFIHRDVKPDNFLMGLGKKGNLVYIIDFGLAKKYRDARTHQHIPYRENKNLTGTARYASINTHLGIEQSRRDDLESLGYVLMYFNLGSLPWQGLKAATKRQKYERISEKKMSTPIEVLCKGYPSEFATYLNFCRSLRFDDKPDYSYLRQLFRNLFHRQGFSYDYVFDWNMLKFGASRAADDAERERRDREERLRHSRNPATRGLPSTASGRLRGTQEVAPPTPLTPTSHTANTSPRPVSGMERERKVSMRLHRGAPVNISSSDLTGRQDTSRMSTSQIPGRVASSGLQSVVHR

| Structure (SMILES) | pIC50 (CSNK1A1) | pIC50 (CSNK1D) |
| --- | --- | --- |
| O=C(Cc1ccc(F)cc1)Nc1cc(-c2[nH]c3cccnc3c2-c2ccc(Cl)s2)ccn1 [Example 17, N-{4-[3-(5-chlorothiophen-2-yl)-1H-pyrrolo[3,2-b]pyridin-2-yl]pyridin-2-yl}-2-(4-fluorophenyl)acetamide] | 8.73 | 8.50 |
| O=C(Cc1ccccc1)Nc1cc(-c2[nH]c3cccnc3c2-c2ccccn2)ccn1 [Example 46, 2-phenyl-N-(4-(3-(pyridin-2-yl)-1H-pyrrolo[3,2-b]pyridin-2-yl)pyridin-2-yl)acetamide] | 8.65 | 8.24 |
